Measurements taken from patent publication US9353107B2 (Aurigene Discovery Technologies Limited, priority 2012, dated 2016).
Where a name gives a salt, the structure may show the parent alone.

Target: T1, recombinant human ALK enzyme (ALK WT) (Homo sapiens, UniProt Q9UM73)
T1 construct: purchased Carna Biosciences 08-518
Experiment: ALK WT cell free enzymatic assay (TR-FRET)
Type: biochemical
Conditions: 1 μM ATP; for IC50: 10 point dose response; for inhibition at 0.1 µM: compound at 100 nM; for inhibition at 0.1 µM / inhibition at 1 µM: 30 min pre-incubation; for inhibition at 1 µM: compound at 1 μM
Procedure: ALK Wild Type (WT) The ALK WT cell free assay was set up to evaluate the effects of these compounds as inhibitors of ALK enzyme. The enzymatic assay was standardized using recombinant human ALK enzyme (Cat#08-518) from Carna Biosciences using Ultra Light Poly GT (Cat# TRF 0100D) from Perkin Elmer as a substrate. TR-FRET (Time resolved fluorescence resonance energy transfer) detection technology was used for the read out. The final assay conditions were 50 mM HEPES pH 7.1, 10 mM MgCl2, 2 mM MnCl2, 0.01% BSA, 2.5 mM DTT, 0.1 mM Na3 VO4, 40 nM Ultra Light Poly GT, 2.5 ng ALK WT enzyme, 1 μM ATP and 125 nM Lance Eu-W1024 labeled anti phospho tyrosine antibody (Cat# AD0203, Perkin Elmer) in 384 well format. The assay reaction time with the substrate was 30 minutes after which the antibody detection mix is added. The TR-FRET signal (Excitation at 340 nm, Emission at 615 nm and 665 nm) was read with 50 μs delay time on Victor^3 V fluorimeter. The data is calculated using the ratio of reading at 665 nM to 615 nM. The final concentration of DMSO was 1% in the assay. Compounds were screened at 100 nM and 1 μM concentrations with pre-incubation of the enzymes with compound for 30 minutes. Each individual IC50 was determined using 10 point dose response curve generated by GraphPad Prism software Version 4 (San Diego, Calif., USA) using non linear regression curve fit for sigmoidal dose response (variable slope). Percentage inhibition at concentrations of 100 nM and 1.0 μM are given in table along with the IC50 (nM) details for selected examples.

T1 sequence (Q9UM73 1058-1620 limits assumed): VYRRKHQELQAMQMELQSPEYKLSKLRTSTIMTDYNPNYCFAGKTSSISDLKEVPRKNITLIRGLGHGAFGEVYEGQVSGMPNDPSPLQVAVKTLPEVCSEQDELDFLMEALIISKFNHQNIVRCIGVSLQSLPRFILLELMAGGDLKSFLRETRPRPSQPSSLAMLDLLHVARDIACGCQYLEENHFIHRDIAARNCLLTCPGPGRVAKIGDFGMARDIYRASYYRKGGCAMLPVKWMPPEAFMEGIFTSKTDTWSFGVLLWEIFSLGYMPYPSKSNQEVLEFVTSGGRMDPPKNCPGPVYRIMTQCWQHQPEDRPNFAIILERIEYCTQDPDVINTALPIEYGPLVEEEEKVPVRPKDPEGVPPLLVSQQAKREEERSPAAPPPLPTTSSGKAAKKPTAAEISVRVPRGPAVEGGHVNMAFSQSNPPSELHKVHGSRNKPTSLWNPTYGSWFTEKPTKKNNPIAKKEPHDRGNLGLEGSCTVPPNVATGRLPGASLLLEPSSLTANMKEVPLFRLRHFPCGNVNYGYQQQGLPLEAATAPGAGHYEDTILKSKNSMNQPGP

Fc1cccc(Cn2cc(-c3c[nH]c4ncc(-c5ccc(C6CCNCC6)cc5)cc34)cn2)c1 [Example 82, 3-(1-(3-fluorobenzyl)-1H-pyrazol-4-yl)-5-(4-(piperidin-4-yl)phenyl)-1H-pyrrolo[2,3-b]pyridine]
IC50: < 50 nM
inhibition at 0.1 µM: 99%
inhibition at 1 µM: 100%

CN1CCN(c2ccc(-c3cnc4[nH]cc(-c5cnn(Cc6cccc(F)c6)c5)c4c3)cn2)CC1 [Example 137, 3-(1-(3-fluorobenzyl)-1H-pyrazol-4-yl)-5-(6-(4-methylpiperazin-1-yl)pyridin-3-yl)-1H-pyrrolo[2,3-b]pyridine]
IC50: < 50 nM
inhibition at 0.1 µM: 99%
inhibition at 1 µM: 100%

Fc1cc(F)cc(Cn2cc(-c3c[nH]c4ncc(-c5ccc(N6CCNCC6)nc5)cc34)cn2)c1 [Example 134, 3-(1-(3,5-difluorobenzyl)-1H-pyrazol-4-yl)-5-(6-(piperazin-1-yl)pyridin-3-yl)-1H-pyrrolo[2,3-b]pyridine]
IC50: < 50 nM
inhibition at 0.1 µM: 97%
inhibition at 1 µM: 100%

Cc1nn(Cc2cccc(F)c2)c(C)c1-c1c[nH]c2ncc(-c3ccc(N4CCNCC4)c(NS(C)(=O)=O)c3)cc12 [Example 58, N-(5-(3-(1-(3-fluorobenzyl)-3,5-dimethyl-1H-pyrazol-4-yl)-1H-pyrrolo[2,3-b]pyridin-5-yl)-2-(piperazin-1-yl)phenyl)methanesulfonamide hydrochloride]
IC50: < 50 nM
inhibition at 0.1 µM: 92%
inhibition at 1 µM: 100%

CC(=O)Nc1cccc(Cn2nc(C)c(-c3c[nH]c4ncc(-c5ccc(N6CCNCC6)cc5)cc34)c2C)c1 [Example 50, N-(3-((3,5-dimethyl-4-(5-(4-(piperazin-1-yl)phenyl)-1H-pyrrolo[2,3-b]pyridin-3-yl)-1H-pyrazol-1-yl)methyl)phenyl)acetamide]
IC50: < 50 nM
inhibition at 0.1 µM: 60%
inhibition at 1 µM: 89%

COc1nc(N2CCN(C[C@H](C)O)CC2)ccc1-c1cnc2[nH]cc(-c3cnn(Cc4cccc(F)c4)c3)c2c1 [Example 144, (S)-1-(4-(5-(3-(1-(3-fluorobenzyl)-1H-pyrazol-4-yl)-1H-pyrrolo[2,3-b]pyridin-5-yl)-6-methoxypyridin-2-yl)piperazin-1-yl)propan-2-ol]
IC50: < 50 nM
inhibition at 0.1 µM: 76%
inhibition at 1 µM: 94%

Fc1cccc(Cn2cc(-c3c[nH]c4ncc(-c5cnc(N6CCNCC6)c(F)c5)cc34)cn2)c1 [Example 173, 5-(5-fluoro-6-(piperazin-1-yl)pyridin-3-yl)-3-(1-(3-fluorobenzyl)-1H-pyrazol-4-yl)-1H-pyrrolo[2,3-b]pyridine]
IC50: < 50 nM
inhibition at 0.1 µM: 92%
inhibition at 1 µM: 98%

C[C@H](O)CN1CCN(c2cnc(-c3cnc4[nH]cc(-c5cnn(Cc6cccc(F)c6)c5)c4c3)cn2)CC1 [Example 163, (S)-1-(4-(5-(3-(1-(3-fluorobenzyl)-1H-pyrazol-4-yl)-1H-pyrrolo[2,3-b]pyridin-5-yl)pyrazin-2-yl)piperazin-1-yl)propan-2-ol]
IC50: < 50 nM
inhibition at 0.1 µM: 88%
inhibition at 1 µM: 98%

Cc1c(-c2c[nH]c3ncc(-c4ccc(N5CCN(C[C@H](C)O)CC5)cc4)cc23)cnn1Cc1cccc(F)c1 [Example 129, (S)-1-(4-(4-(3-(1-(3-fluorobenzyl)-5-methyl-1H-pyrazol-4-yl)-1H-pyrrolo[2,3-b]pyridin-5-yl)phenyl)piperazin-1-yl)propan-2-ol]
IC50: < 50 nM
inhibition at 0.1 µM: 96%
inhibition at 1 µM: 99%

OC1CCN(c2ccc(-c3cnc4[nH]cc(-c5cnn(Cc6cccc(F)c6)c5)c4c3)cn2)CC1 [Example 155, 1-(5-(3-(1-(3-fluorobenzyl)-1H-pyrazol-4-yl)-1H-pyrrolo[2,3-b]pyridin-5-yl)pyridin-2-yl)piperidin-4-ol]
IC50: < 50 nM
inhibition at 0.1 µM: 86%
inhibition at 1 µM: 97%

CCOc1cccc(Cn2nc(C)c(-c3c[nH]c4ncc(-c5ccc(N6CCNCC6)cc5)cc34)c2C)c1 [Example 54, 3-(1-(3-ethoxybenzyl)-3,5-dimethyl-1H-pyrazol-4-yl)-5-(4-(piperazin-1-yl)phenyl)-1H-pyrrolo[2,3-b]pyridine hydrochloride]
inhibition at 0.1 µM: 0%
inhibition at 1 µM: 25%

Cc1nn(Cc2cccc(F)c2)cc1-c1c[nH]c2ncc(-c3cccc(N4CCNCC4)c3)cc12 [Example 37, 3-(1-(3-fluorobenzyl)-3-methyl-1H-pyrazol-4-yl)-5-(3-(piperazin-1-yl)phenyl)-1H-pyrrolo[2,3-b]pyridine]
IC50: < 50 nM
inhibition at 0.1 µM: 93%
inhibition at 1 µM: 98%

Cc1nn(Cc2cccc(F)c2)cc1-c1c[nH]c2ncc(-c3ccc(C4CCNCC4)cc3)cc12 [Example 90, 3-(1-(3-fluorobenzyl)-3-methyl-1H-pyrazol-4-yl)-5-(4-(piperidin-4-yl)phenyl)-1H-pyrrolo[2,3-b]pyridine]
IC50: < 50 nM
inhibition at 0.1 µM: 97%
inhibition at 1 µM: 100%

NC(=O)CN1CCC(Cc2cccc(-c3cnc4[nH]cc(-c5cnn(Cc6cccc(F)c6)c5)c4c3)c2)CC1 [Example 184, 2-(4-(3-(3-(1-(3-fluorobenzyl)-1H-pyrazol-4-yl)-1H-pyrrolo[2,3-b]pyridin-5-yl)benzyl)piperidin-1-yl)acetamide]
IC50: < 50 nM
inhibition at 0.1 µM: 92%
inhibition at 1 µM: 100%

NC(=O)N1CCN(c2ccc(-c3cnc4[nH]cc(-c5cnn(Cc6cccc(F)c6)c5)c4c3)cc2)CC1 [Example 108, 4-(4-(3-(1-(3-fluorobenzyl)-1H-pyrazol-4-yl)-1H-pyrrolo[2,3-b]pyridin-5-yl)phenyl)piperazine-1-carboxamide]
IC50: < 50 nM
inhibition at 0.1 µM: 97%
inhibition at 1 µM: 100%

Cc1nn(Cc2cccc(F)c2)cc1-c1c[nH]c2ncc(-c3ccc(N4CCN(C[C@H](C)O)CC4)cc3)cc12 [Example 130, (S)-1-(4-(4-(3-(1-(3-fluorobenzyl)-3-methyl-1H-pyrazol-4-yl)-1H-pyrrolo[2,3-b]pyridin-5-yl)phenyl)piperazin-1-yl)propan-2-ol]
IC50: < 50 nM
inhibition at 0.1 µM: 88%
inhibition at 1 µM: 99%

Cc1nn(Cc2cccc(F)c2)c(C)c1-c1c[nH]c2ncc(-c3ccc(N4CCOCC4)c(NS(C)(=O)=O)c3)cc12 [Example 59, N-(5-(3-(1-(3-fluorobenzyl)-3,5-dimethyl-1H-pyrazol-4-yl)-1H-pyrrolo[2,3-b]pyridin-5-yl)-2-morpholinophenyl)methanesulfonamide]
IC50: 50 to 250 nM
inhibition at 0.1 µM: 49%
inhibition at 1 µM: 77%

Cc1c(-c2c[nH]c3ncc(-c4ccc(N5CCN(C[C@H](C)O)CC5)nc4)cc23)cnn1Cc1cccc(F)c1 [Example 162, (S)-1-(4-(5-(3-(1-(3-fluorobenzyl)-5-methyl-1H-pyrazol-4-yl)-1H-pyrrolo[2,3-b]pyridin-5-yl)pyridin-2-yl)piperazin-1-yl)propan-2-ol]
IC50: < 50 nM
inhibition at 0.1 µM: 75%
inhibition at 1 µM: 96%

N#CCN1CCN(c2ccc(-c3cnc4[nH]cc(-c5cnn(Cc6cccc(F)c6)c5)c4c3)cn2)CC1 [Example 150, 2-(4-(5-(3-(1-(3-fluorobenzyl)-1H-pyrazol-4-yl)-1H-pyrrolo[2,3-b]pyridin-5-yl)pyridin-2-yl)piperazin-1-yl)acetonitrile]
IC50: < 50 nM
inhibition at 0.1 µM: 92%
inhibition at 1 µM: 100%

COc1ccc(-c2cnc3[nH]cc(-c4c(C)nn(Cc5cc(F)ccc5F)c4C)c3c2)cc1NS(C)(=O)=O [Example 22, N-(5-(3-(1-(2,5-difluorobenzyl)-3,5-dimethyl-1H-pyrazol-4-yl)-1H-pyrrolo[2,3-b]pyridin-5-yl)-2-methoxyphenyl)methanesulfonamide]
IC50: < 50 nM
inhibition at 0.1 µM: 62%
inhibition at 1 µM: 87%

Cc1nn(Cc2cccc(F)c2)c(C)c1-c1c[nH]c2ncc(-c3ccc(C4CCNCC4)cc3)cc12 [Example 92, 3-(1-(3-fluorobenzyl)-3,5-dimethyl-1H-pyrazol-4-yl)-5-(4-(piperidin-4-yl)phenyl)-1H-pyrrolo[2,3-b]pyridine]
IC50: < 50 nM
inhibition at 0.1 µM: 98%
inhibition at 1 µM: 100%

CS(=O)(=O)Nc1cccc(-c2cnc3[nH]cc(-c4cnn(Cc5cc(F)cc(F)c5)c4)c3c2)c1 [Example 6, N-(3-(3-(1-(3,5-difluorobenzyl)-1H-pyrazol-4-yl)-1H-pyrrolo[2,3-b]pyridin-5-yl)phenyl) methane sulfonamide]
IC50: < 50 nM
inhibition at 1 µM: 99%

CS(=O)(=O)Nc1cc(-c2cnc3[nH]cc(-c4ccn(Cc5cc(F)cc(F)c5)n4)c3c2)ccc1C1CCNCC1 [Example 176, N-(5-(3-(1-(3,5-difluorobenzyl)-1H-pyrazol-3-yl)-1H-pyrrolo[2,3-b]pyridin-5-yl)-2-(piperidin-4-yl)phenyl)methanesulfonamide]
IC50: < 50 nM
inhibition at 0.1 µM: 86%
inhibition at 1 µM: 99%
